Earlier results, collected in patent US7056909B2, “Alpha v integrin receptor antagonists” (Merck & Co., Inc., priority 2000, dated 2006).

Conditions: postmenopausal osteoporotic women, median of 22 months of treatment

For “hPTH(1–34): human parathyroid hormone 1-34 fragment (SVSEIQLMHNLGKHLNSMERVEWLRKKLQDVHNF; Parathyroid hormone; UniProt P01270 32-65, looked up, fragment)”, the “reduction in nonvertebral fractures” value is listed as 54% and the “reduction in spine fractures” value is listed as ≥ 65%.
